Assay results: patent publication US9884063B2, “Amido-substituted azole compounds” (Bayer Pharma Aktiengesellschaft, priority 2014, dated 2018)
Where a name gives a salt, the structure may show the parent alone.

Key:
TNKS1 = molecular target: T1, TNKS1 (Homo sapiens, UniProt O95271); assay: Modified TNKS1 Assay 3 (BPS kit #80573, biotin-NAD+, 96 well); assay type: biochemical; settings: human TNKS1, BPS kit #80573, 96 well
T1 sequence (O95271 1-1327): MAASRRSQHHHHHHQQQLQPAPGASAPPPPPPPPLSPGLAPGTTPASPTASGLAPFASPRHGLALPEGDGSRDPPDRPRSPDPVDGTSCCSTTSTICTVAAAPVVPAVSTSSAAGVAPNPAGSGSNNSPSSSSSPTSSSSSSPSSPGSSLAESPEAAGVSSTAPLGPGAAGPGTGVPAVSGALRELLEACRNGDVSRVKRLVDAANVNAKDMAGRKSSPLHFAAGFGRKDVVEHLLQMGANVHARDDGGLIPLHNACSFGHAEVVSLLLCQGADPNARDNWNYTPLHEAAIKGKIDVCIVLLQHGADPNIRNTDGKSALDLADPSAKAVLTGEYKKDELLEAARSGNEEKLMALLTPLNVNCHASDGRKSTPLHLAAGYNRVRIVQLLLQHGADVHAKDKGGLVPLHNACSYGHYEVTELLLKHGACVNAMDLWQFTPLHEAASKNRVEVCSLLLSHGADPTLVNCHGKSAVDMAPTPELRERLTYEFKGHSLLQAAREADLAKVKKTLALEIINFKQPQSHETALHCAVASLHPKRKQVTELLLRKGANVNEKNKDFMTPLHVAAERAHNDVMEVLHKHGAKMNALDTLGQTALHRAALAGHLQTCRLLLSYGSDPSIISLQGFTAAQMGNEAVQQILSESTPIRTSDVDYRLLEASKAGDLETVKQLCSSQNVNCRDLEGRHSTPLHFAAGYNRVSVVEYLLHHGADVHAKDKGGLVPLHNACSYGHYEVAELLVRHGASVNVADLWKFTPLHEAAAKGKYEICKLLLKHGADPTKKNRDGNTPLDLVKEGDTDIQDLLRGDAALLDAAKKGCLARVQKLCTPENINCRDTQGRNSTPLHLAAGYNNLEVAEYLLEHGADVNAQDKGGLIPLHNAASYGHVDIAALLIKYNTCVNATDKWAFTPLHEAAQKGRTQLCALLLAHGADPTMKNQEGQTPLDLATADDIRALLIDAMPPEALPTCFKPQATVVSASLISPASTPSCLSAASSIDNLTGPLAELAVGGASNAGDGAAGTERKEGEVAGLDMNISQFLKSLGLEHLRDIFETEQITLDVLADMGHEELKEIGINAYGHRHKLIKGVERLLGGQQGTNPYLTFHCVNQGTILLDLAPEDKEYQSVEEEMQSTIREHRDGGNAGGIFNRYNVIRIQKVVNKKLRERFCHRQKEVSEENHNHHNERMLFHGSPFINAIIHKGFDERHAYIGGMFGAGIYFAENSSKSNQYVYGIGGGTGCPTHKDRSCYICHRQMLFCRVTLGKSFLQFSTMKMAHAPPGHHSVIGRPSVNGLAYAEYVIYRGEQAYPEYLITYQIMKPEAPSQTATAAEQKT
Protocol: The potency of the compounds against human TNKS1 according to the invention was assessed using a commercially available biotin/streptavidin binding assay kits from BPS Bioscience, San Diego, USA (Catalog #80573 for TNKS1). The incorporation of a biotin-labeled NAD+ during the […] catalyzed ribosylation of a suitable protein substrate was detected using with a streptavidin-HRP coupled chemi-luminescent readout. The intensity of the readout signal is proportional to the incorporated NAD^+. Inhibition of TNKS1 leads to a decreased incorporation of NAD^+ and consequently to a lower readout signal intensity in the corresponding TNKS1 assays. The concentration of a test compound that inhibits the enzyme activity by 50% (corresponds to half of the normed readout signal intensity) is reported as IC50. The assay was conducted in a 96 well MTP format according to the manufacturer's protocol and using a BMG Pherastar MTP reader [BMG-Labtech, Offenburg, Germany].

[1] = test system: HEK293 FOP control reporter cell line; assay: HEK293 FOP Assay (FOP control vector luciferase reporter); assay type: cell-based; settings: Homo sapiens, HEK293 FOP control reporter cell line, 16 hours incubation, compound dilution series 50 μM to 15 nM
Method in brief: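 Compound series 50 μM to 15 nM, 3.16-fold steps, were diluted in CAFTY buffer (pH 7.4, 2 mM Ca2+, 0.01% BSA) and tested alongside the TOP reporter line. Human Wnt-3a was added at 2500–5 ng/ml in two-fold steps. The control HEK293 line stably holds an FOP vector whose TCF elements are randomized and non-functional.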

[2] = test system: wildtype Wnt signaling cascade; assay: HEK293 TOP Assay (Super TopFlash luciferase reporter, Wnt-3a stimulated); assay type: cell-based; settings: Homo sapiens, HEK293 TOP reporter cell line, Wnt-3a at EC50, 16 hours incubation, compound dilution series 50 μM to 15 nM
Method in brief: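 Compounds (50 μM down to 15 nM, 3.16-fold steps, in CAFTY buffer pH 7.4, 2 mM Ca2+, 0.01% BSA) tested in parallel on TOP and FOP HEK293 reporter lines to define selective wildtype Wnt inhibition. Pathway driven by recombinant human Wnt-3a applied at 2500–5 ng/ml in two-fold dilutions.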

SMILES | IC50 (TNKS1) [nM] | IC50 ([2]; HEK293, 16 h) [nM] | IC50 [1] [nM] | IC50 ([1]; HEK293, 16 h) [nM] | IC50 [2] [nM]
CN1CC2(C1)CN(C(=O)c1nc[nH]c1C(=O)Nc1ccc(NC(=O)c3cc(F)c(F)cc3Cl)cc1)C2 [Example 50, N N-{4-[(2-chloro-4,5-difluorobenzoyl)amino]phenyl}-4-[(6-methyl-2,6-diazaspiro[3.3]hept-2-yl)carbonyl]-1H-imidazole-5-carboxamide] | 130 | 120 | 13000 | – | –
O=C(Nc1ccc(NC(=O)c2[nH]cnc2C(=O)NCCN2CCCCC2)cc1)c1ccc(F)cc1Cl [Example 127, N^5-{4-[(2-chloro-4-fluorobenzoyl)amino]phenyl}-N^4-[2-(piperidin-1-yl)ethyl]-1H-imidazole-4,5-dicarboxamide hydrochloride] | 2 | – | – | 50000 | 10
CC(C)(C)NC(=O)c1[nH]cnc1C(=O)Nc1ccc(NC(=O)c2ccc(F)cc2Cl)cc1 [Example 133, N^5-tert-butyl-N^4-{4-[(2-chloro-4-fluorobenzoyl)amino]phenyl}-1H-imidazole-4,5-dicarboxamide] | 200 | 430 | 8700 | – | –
CC(C)(N)CCNC(=O)c1[nH]cnc1C(=O)Nc1ccc(NC(=O)c2ccccc2Cl)cc1 [Example 283, N^5-(3-amino-3-methylbutyl)-N^4-{4-[(2-chlorobenzoyl)amino]phenyl}-1H-imidazole-4,5-dicarboxamide hydrochloride salt] | 110 | – | – | 50000 | 840
O=C(Nc1ccc(NC(=O)c2nc[nH]c2C(=O)NCCCN2CCCCC2)cc1)c1ccc(F)cc1Cl [Example 297, N^4-{4-[(2-chloro-4-fluorobenzoyl)amino]phenyl}-N^5-[3-(piperidin-1-yl)propyl]-1H-imidazole-4,5-dicarboxamide] | > 500 | 1050 | 22500 | – | –
CC(C)[C@@H](CO)NC(=O)c1nc[nH]c1C(=O)Nc1ccc(NC(=O)c2ccc(F)cc2Cl)cc1 [Example 379, N^5-{4-[(2-chloro-4-fluorobenzoyl)amino]phenyl}-N^4-[(2S)-1-hydroxy-3-methylbutan-2-yl]-1H-imidazole-4,5-dicarboxamide] | 190 | 3200 | – | – | –
CC1CCCCN1CCCNC(=O)c1nc[nH]c1C(=O)Nc1ccc(NC(=O)c2ccc(F)cc2Cl)cc1 (centres unmarked) [Example 386, N^5-{4-[(2-chloro-4-fluorobenzoyl)amino]phenyl}-N^4-[3-(2-methylpiperidin-1-yl)propyl]-1H-imidazole-4,5-dicarboxamide] | 60 | 460 | 15000 | – | –
O=C(Nc1ccc(NC(=O)c2[nH]cnc2C(=O)NCCN2CCS(=O)(=O)CC2)cc1)c1ccc(F)cc1Cl [Example 402, N^5-{4-[(2-chloro-4-fluorobenzoyl)amino]phenyl}-N^4-[2-(1,1-dioxidothiomorpholin-4-yl)ethyl]-1H-imidazole-4,5-dicarboxamide] | 260 | 170 | – | – | –
CN1CCC(CNC(=O)c2nc[nH]c2C(=O)Nc2ccc(NC(=O)c3ccc(F)cc3Cl)cc2)CC1 [Example 408, N^5-{4-[(2-chloro-4-fluorobenzoyl)amino]phenyl}-N^4-[(1-methylpiperidin-4-yl)methyl]-1H-imidazole-4,5-dicarboxamide] | 80 | 300 | – | – | –
CCN1CCC(CNC(=O)c2nc[nH]c2C(=O)Nc2ccc(NC(=O)c3ccc(F)cc3Cl)cc2)C1 (centres unmarked) [Example 411, N^5-{4-[(2-chloro-4-fluorobenzoyl)amino]phenyl}-N^4-[(1-ethylpyrrolidin-3-yl)methyl]-1H-imidazole-4,5-dicarboxamide] | 70 | 290 | – | – | –

Continued, in another order:

IC50 (TNKS1) [nM] | IC50 ([2]; HEK293, 16 h) [nM] | SMILES | IC50 [1] [nM] | IC50 ([1]; HEK293, 16 h) [nM] | IC50 [2] [nM]
1 | 140 | CN(C)CCNC(=O)c1nc[nH]c1C(=O)Nc1ccc(NC(=O)c2ccc(F)cc2Cl)nc1 [Example 109, N^5-{6-[(2-chloro-4-fluorobenzoyl)amino]pyridin-3-yl}-N^4-[2-(dimethylamino)ethyl]-1H-imidazole-4,5-dicarboxamide] | 43000 | – | –
30 | 1550 | O=C(Nc1ccc(NC(=O)c2nc[nH]c2C(=O)NCCCN2CCCC(O)C2)cc1)c1ccc(F)cc1Cl (centres unmarked) [Example 273, N^4-{4-[(2-chloro-4-fluorobenzoyl)amino]phenyl}-N^5-[3-(3-hydroxypiperidin-1-yl)propyl]-1H-imidazole-4,5-dicarboxamide] | 21000 | – | –
50 | 110 | O=C(Nc1ccc(NC(=O)c2nc[nH]c2C(=O)NCCN2CCC[C@H](F)C2)cc1)c1ccc(F)cc1Cl [Example 276, N^4-{4-[(2-chloro-4-fluorobenzoyl)amino]phenyl}-N^5-{2-[(3S)-3-fluoropiperidin-1-yl]ethyl}-1H-imidazole-4,5-dicarboxamide] | 31000 | – | –
60 | 230 | CN(C)CCCCCNC(=O)c1nc[nH]c1C(=O)Nc1ccc(NC(=O)c2ccc(F)cc2Cl)cc1 [Example 378, N^5-{4-[(2-chloro-4-fluorobenzoyl)amino]phenyl}-N^4-[5-(dimethylamino)pentyl]-1H-imidazole-4,5-dicarboxamide] | 27000 | – | –
20 | 120 | CCN(CC)CCNC(=O)c1nc[nH]c1C(=O)Nc1ccc(NC(=O)c2ccc(F)cc2Cl)cc1 [Example 382, N^5-{4-[(2-chloro-4-fluorobenzoyl)amino]phenyl}-N^4-[2-(diethylamino)ethyl]-1H-imidazole-4,5-dicarboxamide] | – | – | –
50 | 310 | CN1CCCC1CCNC(=O)c1nc[nH]c1C(=O)Nc1ccc(NC(=O)c2ccc(F)cc2Cl)cc1 (centres unmarked) [Example 385, N^5-{4-[(2-chloro-4-fluorobenzoyl)amino]phenyl}-N^4-[2-(1-methylpyrrolidin-2-yl)ethyl]-1H-imidazole-4,5-dicarboxamide] | – | – | –
30 | 440 | CCN(CC)CCCNC(=O)c1nc[nH]c1C(=O)Nc1ccc(NC(=O)c2ccc(F)cc2Cl)cc1 [Example 388, N^5-{4-[(2-chloro-4-fluorobenzoyl)amino]phenyl}-N^4-[3-(diethylamino)propyl]-1H-imidazole-4,5-dicarboxamide] | 17000 | – | –
30 | 140 | CN(C)C(C)(C)CNC(=O)c1nc[nH]c1C(=O)Nc1ccc(NC(=O)c2ccc(F)cc2Cl)cc1 [Example 412, N^5-{4-[(2-chloro-4-fluorobenzoyl)amino]phenyl}-N^4-[2-(dimethylamino)-2-methylpropyl]-1H-imidazole-4,5-dicarboxamide] | – | – | –
